The results in this text go back to patent publication US20110195987A1, “TREATMENT WITH CHOLINERGIC AGONISTS” (priority 2009, published 2011).

Type in all cases: in vivo, human
Data set [1] is described as follows: Case studies: vaginal dryness / vaginal secretions in female patients. How it is done:
(§1) A second patient two, suffering from painful intercourse and vaginal dryness and discomfort, also used oral pilocarpine at a dose of 2.5-5 mg BID. […] A trial of intra-vaginal administration of pilocarpine, starting at a dose of 1/4 of a 5 mg tablet daily at night was tried. […] The patient had previously tried HRT without much improvement. The improvement in vaginal symptoms was stunning.
(§2) A third patient has had problems with vaginal dryness and painful intercourse for several years. Oral hormone replacement therapy consisting of both estradiol and PROMETRIUM (progesterone), had provided no relief for their vaginal symptoms. They were started on oral Evoxac, 30 mg daily. After a week, they administered 30 mg cevimeline mixed with a small amount of yogurt directly in the vagina nightly. They have reported improvement in both vaginal dryness and pain on intercourse and continues on the treatment.
They were started on oral pilocarpine, 5 mg twice a day. Within a few days, they noticed marked improvement in their symptoms, i.e., a reduction in vaginal dryness and symptoms associated with urinary tract infections. […]
(§3) Their symptoms consisted of vaginal and pelvic pain as well as signs of urinary tract infections with trace positive cultures. Prior attempts to treat urinary tract infections with antibiotics often failed. They began a regimen of oral pilocarpine, 5 mg twice a day, for a week followed by 5 mg pilocarpine administered directly to the vagina nightly for a week. Subsequently, the amount of pilocarpine was increased to 10 mg directly administered to the vagina nightly. […] Additionally, they reported a reduction in pelvic pain and vaginal dryness a few days after commencing intravaginal administration of 10 mg pilocarpine.

Data set [2] in a line: Case studies: symptoms of interstitial cystitis (IC) in female patients. Here is the method: (§4) In the case of a patient who has been diagnosed with IC for more than 8 years, no prior treatment has helped the episodes of pain, urinary frequency, and systemic symptoms mentioned above. […] However, the onset of breast cancer and its treatment have precluded the use of Hormone Replacement Therapy (HRT). Because of vaginal dryness, a trial of Evoxac (cevimeline HCl) capsules, 30 mg daily, by oral administration was tried. […] This lasted for about 2 months. The Evoxac was started on or about Apr. 5, 2009. […] Metoprolol at a dose of 12.5-25 mg/day was started to slow the heart rate. […] The Evoxac was restarted at a dose of 15 mg daily. A trial of intra-vaginal medication at a dose of 30 mg per vagina (powder was taken out of the capsule and instilled using a gel cap) was also tried.
as §3

Data set [3] is described as follows: Case studies: side effects of oral versus intra-vaginal administration. How it is done:
as §4, §1
(§5) […] They began and tolerated oral pilocarpine, 5 mg twice a day.

Data set [4] is described as follows: Case studies: painful intercourse in female patients. How it is done:
as §1, §2
(§6) They began a week long regimen of oral pilocarpine, 5 mg twice a day, followed by 10 mg placed directly in the vagina nightly. They reported improvement in symptoms associated with urinary tract infections, vaginal dryness and painful intercourse. […] Formulation of the pilocarpine in a manner suitable for intravaginal administration will improve delivery of the pilocarpine and the efficacy of treatment.

Data set [5] is described as follows: Case studies: urinary tract infections in female patients. How it is done: […] […] They were started on oral pilocarpine, 5 mg twice a day. Within a few days, they noticed marked improvement in their symptoms, i.e., a reduction in vaginal dryness and symptoms associated with urinary tract infections.
as §5, §6

The nature of data set [6]: Case study: vaginal yeast infections in patient. Conditions: Case Study 5, patient one; oral 5 mg twice a day, approximately 8 months. How it is done:
as §5

[7] abbreviates: Case Study 3, patient seven, oral 30 mg daily for a week, then 30 mg in yogurt directly in the vagina nightly.
Setting [8] is: Case Study 1, patient three, 30 mg daily, oral.
Where [9] appears, read: Case Study 2, patient two, intra-vaginal up to 7.5 mg daily.
Setting [10] is: Case Study 2, patient two, oral 2.5-5 mg BID.
The mark [11] stands for this setting: Case Study 4, patient five, oral 5 mg twice a day, within a few days.
[12] abbreviates: Case Study 5, patient one, oral 5 mg twice a day, approximately 8 months.
Setting [13] is: Case Study 6, patient six, oral 5 mg twice a day for a week, then 10 mg in the vagina nightly.
The mark [14] stands for this setting: Case Study 7, patient four, 10 mg intravaginal nightly, a few days after commencing.

On to `CC1OC2(CS1)CN1CCC2CC1` (stereo not drawn) [Evoxac, 2-methyspiro (1,3-oxathiolane-5,3) quinuclidine], for which the vaginal dryness entry in data set [1] (Case Study 1, patient three, capsules 30 mg daily, oral) is listed as “improvement in vaginal dryness”; in data set [1] (setting [7]) it was “improvement”. The “symptoms of IC” value in data set [2] (Case Study 1, patient three, 15 mg daily oral, compared with prior treatment incl. Elmiron 100 mg TID four months) is on record as “improved the symptoms of IC better than any prior treatment”; in data set [2] (setting [8]) it was “remitted”; in data set [2] (Case Study 1, patient three, 30 mg intra-vaginal (powder in gel cap), compared with prior treatment incl. Elmiron 100 mg TID four months), “improved the symptoms of IC better than any prior treatment”. Besides, the “duration of remission of IC symptoms” value in data set [2] (setting [8]) is given as “about 2 months”. Moreover, the “symptoms of IC after discontinuing the medication” value in data set [2] (Case Study 1, patient three, stopped for a few weeks) is “symptoms of IC return within a week”. The side effects result in data set [3] (Case Study 1, patient three, 30 mg intra-vaginal) was “completely eliminated side-effects”; in data set [3] (Case Study 1, patient three, oral administration, 30 mg daily), “nausea and rapid heart rate”. Also, the pain on intercourse entry in data set [4] (setting [7]) is “improvement”.
On to `CC[C@@H]1C(=O)OC[C@@H]1Cc1cncn1C` [pilocarpine, (3S,4R)-3-ethyl-4-((1-methyl-1H-imidazol-5-yl)methyl)dihydrofuran-2(3H)-one], for which the vaginal secretions result in data set [1] (Case Study 2, patient two, intra-vaginal 2.5 mg daily) is on record as “partial response”; in data set [1] (Case Study 2, patient two, intra-vaginal 5 mg daily) it was “improved greatly”; in data set [1] (Case Study 2, patient two, intra-vaginal 7.5 mg daily) it was “improved greatly”; in data set [1] (Case Study 7, patient four, 5 mg directly to the vagina nightly, after the first week) it was “an increase in vaginal secretions”; in data set [1] (Case Study 7, patient four, 10 mg directly to the vagina nightly), “increased more significantly”. Also, the “improvement in vaginal symptoms” value in data set [1] (setting [9]) was “stunning”. The vaginal dryness result in data set [1] (setting [10]) is on record as “improved”; in data set [1] (setting [11]) it was “reduction”; in data set [1] (setting [12]), “no more vaginal dryness”; in data set [1] (setting [13]), “improvement”; in data set [1] (setting [14]), “reduction”. In data set [1] (Case Study 4, patient five, oral, taken intermittently), the “results of intermittent dosing” value was “satisfactory results”. Also, the pelvic pain result in data set [2] (setting [14]) was “reduction”. The systemic symptoms result in data set [3] (Case Study 2, patient two, intra-vaginal) is given as “no systemic symptoms”. The side effects result in data set [3] (setting [10]) was “excess sweating and nausea”. In addition, in data set [3] (Case Study 5, patient one, oral 5 mg twice a day), the tolerability entry is given as “tolerated”. For the same compound, in data set [4] (setting [9]), the intercourse entry is “could enjoy intercourse for the first time in many months”. Moreover, the painful intercourse result in data set [4] (setting [13]) was “improvement”. Moreover, the “symptoms associated with urinary tract infections” value in data set [5] (setting [11]) is given as “reduction”; in data set [5] (setting [13]) it was “improvement”. Also, the urinary tract infections result in data set [5] (setting [12]) is on record as “far fewer”. Also, the vaginal yeast infections result in data set [6] was “far fewer”.
`CC(=O)[C@H]1CC[C@H]2[C@@H]3CCC4=CC(=O)CC[C@]4(C)[C@H]3CC[C@]12C` [PROMETRIUM, progesterone]: the “vaginal symptoms (vaginal dryness and painful intercourse)” value in data set [1] (Case Study 3, patient seven, oral hormone replacement therapy, estradiol and PROMETRIUM together) is “no relief”.
